Measurements from ChEMBL document CHEMBL1201862, “PubChem BioAssay data set” (2004).
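All cell lines were grown in 96-well plates and treated with compound for 48 hours. GI50 marks 50% less growth.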 Calls of active or inactive are those of the source. No stated cut-off is given here; in the data, active = GI50 up to about 1.1 µM and inactive = higher. Where a SMILES comes first, the peptide text is derived from it. [ ]: non-standard residue; d: D form. The star is where a group is joined. Phe(4-NO2) = N[CH](Cc1ccc([N+](=O)[O-])cc1)C(=O)O; Cbz = O=C(OCc1ccccc1)*

Legend:
Test in all cases: DTP human tumour cell line panel, 48 h
[1] = system: A498
[2] = system: BT-549
[3] = system: HL-60
[4] = system: HT-29
[5] = system: LOX IMVI
[6] = system: MCF7
[7] = system: MDA-MB-231
[8] = system: MOLT-4
[9] = system: NCI-H23
[10] = system: NCI-H460
[11] = system: NCI/ADR-RES
[12] = system: OVCAR-3
[13] = system: OVCAR-4
[14] = system: OVCAR-8
[15] = system: RPMI-8226
[16] = system: SF-268
[17] = system: SN12C
[18] = system: T47D
[19] = system: SR

Compound	GI50 [1]	GI50 [2]	GI50 [3]	GI50 [4]	GI50 [5]	GI50 [6]	GI50 [7]	GI50 [8]	GI50 [9]	GI50 [10]	GI50 [11]	GI50 [12]	GI50 [13]	GI50 [14]	GI50 [15]	GI50 [16]	GI50 [17]	GI50 [18]	GI50 [19]
c1ccc2c(c1)Oc1cccc3cccc-2c13	> 100 µM (inactive)	> 100 µM (inactive)	> 100 µM (inactive)	> 100 µM (inactive)	> 100 µM (inactive)	> 100 µM (inactive)	> 100 µM (inactive)	98.2 µM (inactive)	> 100 µM (inactive)	> 100 µM (inactive)	> 100 µM (inactive)	42.3 µM (inactive)	> 100 µM (inactive)	> 100 µM (inactive)	> 100 µM (inactive)	> 100 µM (inactive)	> 100 µM (inactive)	> 100 µM (inactive)	
CC(N/N=C(\S)N1CCN(c2ccccn2)CC1)c1cccc[n+]1[O-] (centres undefined)		43.2 µM (inactive)	3.13 µM (inactive)	0.661 µM (active)	8.17 µM (inactive)	13.2 µM (inactive)	19 µM (inactive)	2.58 µM (inactive)	28.2 µM (inactive)	5.31 µM (inactive)	2.9 µM (inactive)	4.9 µM (inactive)	14 µM (inactive)	6.9 µM (inactive)		22.8 µM (inactive)	23.6 µM (inactive)	77.1 µM (inactive)	4.58 µM (inactive)
[N-]=[N+]=Nc1c(Cc2ccccc2)c(=O)oc2ccccc12		24.5 µM (inactive)	90.8 µM (inactive)	21.7 µM (inactive)	14.2 µM (inactive)	32.6 µM (inactive)	39.3 µM (inactive)	5.06 µM (inactive)	26.4 µM (inactive)	18.1 µM (inactive)	27.6 µM (inactive)	49.5 µM (inactive)	32.4 µM (inactive)		33.2 µM (inactive)	25.9 µM (inactive)	> 10 µM (inactive)	56.8 µM (inactive)	33.4 µM (inactive)
CCCCCCOP(=O)(OCCCCCC)OC(C(=O)OC)C(F)(F)F (centres undefined)		> 100 µM (inactive)	> 100 µM (inactive)	> 100 µM (inactive)	> 100 µM (inactive)	> 100 µM (inactive)	> 100 µM (inactive)	> 100 µM (inactive)	> 100 µM (inactive)		> 100 µM (inactive)	> 100 µM (inactive)	> 100 µM (inactive)	> 100 µM (inactive)	> 100 µM (inactive)	> 100 µM (inactive)	> 100 µM (inactive)	> 100 µM (inactive)	> 100 µM (inactive)
CN(C)c1ccc(/C=C(\C#N)c2nc(-c3cc4ccccc4oc3=O)cs2)cc1		1.73 µM (inactive)	> 50 µM (inactive)	> 50 µM (inactive)	> 50 µM (inactive)	> 50 µM (inactive)	11.6 µM (inactive)	> 50 µM (inactive)		> 50 µM (inactive)	35.5 µM (inactive)		24.9 µM (inactive)	20.3 µM (inactive)	> 50 µM (inactive)	21 µM (inactive)	> 50 µM (inactive)	> 50 µM (inactive)	> 50 µM (inactive)
Cc1nc(N/N=C/c2ccccc2Cl)[nH]c(=O)c1CCO		57.1 µM (inactive)	> 100 µM (inactive)	> 100 µM (inactive)	> 100 µM (inactive)	36.2 µM (inactive)	71 µM (inactive)	> 100 µM (inactive)	35.8 µM (inactive)	80 µM (inactive)	61.1 µM (inactive)	19.6 µM (inactive)	87.3 µM (inactive)	22 µM (inactive)	25.9 µM (inactive)	33.5 µM (inactive)	47.4 µM (inactive)	24.8 µM (inactive)	> 100 µM (inactive)
O=C1CC(=O)NC(NN2C(=O)CSC2C(=O)c2ccco2)=N1 (centres undefined)	> 100 µM (inactive)	> 100 µM (inactive)		> 100 µM (inactive)		> 100 µM (inactive)	> 100 µM (inactive)	> 100 µM (inactive)	> 100 µM (inactive)	> 100 µM (inactive)	> 100 µM (inactive)	> 100 µM (inactive)	> 100 µM (inactive)	> 100 µM (inactive)	> 100 µM (inactive)	> 100 µM (inactive)	> 100 µM (inactive)	> 100 µM (inactive)	> 100 µM (inactive)
COC1CC(NC(=O)C(F)(F)F)C(OC(C)=O)C(C)O1 (centres undefined)		> 100 µM (inactive)	> 100 µM (inactive)	> 100 µM (inactive)	> 100 µM (inactive)	> 100 µM (inactive)	> 100 µM (inactive)	> 100 µM (inactive)	> 100 µM (inactive)	> 100 µM (inactive)	> 100 µM (inactive)	> 100 µM (inactive)	> 100 µM (inactive)	> 100 µM (inactive)	> 100 µM (inactive)	> 100 µM (inactive)	> 100 µM (inactive)	> 100 µM (inactive)	> 100 µM (inactive)
COC(=O)c1c(OC)cc2cc3c(c(O)c2c1C)C(=O)C1(O)C(=O)C=C(OC)C(OC(=O)CC(C)N)=C1C3=O (centres undefined)		34.7 µM (inactive)	16.4 µM (inactive)	4.88 µM (inactive)	8.49 µM (inactive)	15.6 µM (inactive)	8.47 µM (inactive)	5.32 µM (inactive)	8.95 µM (inactive)	7.05 µM (inactive)	23.2 µM (inactive)	22.6 µM (inactive)	18.3 µM (inactive)	11.9 µM (inactive)	7.6 µM (inactive)	16.5 µM (inactive)	> 100 µM (inactive)	20.9 µM (inactive)	12.9 µM (inactive)
O=c1cc(/N=N\c2ccc(Br)cc2)[nH]c(=S)[nH]1		56.6 µM (inactive)	19.3 µM (inactive)	18.4 µM (inactive)	15.3 µM (inactive)	15.8 µM (inactive)	17.6 µM (inactive)	24.5 µM (inactive)	32.7 µM (inactive)	32.7 µM (inactive)	61.2 µM (inactive)	15.4 µM (inactive)	18.1 µM (inactive)	23.1 µM (inactive)	15.9 µM (inactive)	39.3 µM (inactive)	96.4 µM (inactive)	17.3 µM (inactive)	27.6 µM (inactive)
CCSCC(=O)N1CCc2c([nH]c3ccccc23)C1=O		> 100 µM (inactive)	> 100 µM (inactive)	> 100 µM (inactive)	> 100 µM (inactive)	96.6 µM (inactive)	> 100 µM (inactive)	> 100 µM (inactive)	> 100 µM (inactive)	> 100 µM (inactive)	> 100 µM (inactive)	> 100 µM (inactive)	> 100 µM (inactive)	> 100 µM (inactive)		> 100 µM (inactive)	> 100 µM (inactive)	> 100 µM (inactive)	> 100 µM (inactive)
COc1ccc(-c2c3c(n(C4OC(CO)C(O)C(O)C4O)c(=S)c2C#N)CCC3)cc1 (centres undefined)		51.2 µM (inactive)	34.7 µM (inactive)	40.1 µM (inactive)	42.1 µM (inactive)	37.6 µM (inactive)	> 100 µM (inactive)	28.8 µM (inactive)	28.7 µM (inactive)	45.2 µM (inactive)	> 100 µM (inactive)	25.7 µM (inactive)	79.1 µM (inactive)		49.5 µM (inactive)	62.8 µM (inactive)	37 µM (inactive)	44.9 µM (inactive)	38.4 µM (inactive)
NC(=O)Cc1nc2c(O)ncnc2n1C1OC(CO)C(O)C1O (centres undefined)	> 100 µM (inactive)	> 100 µM (inactive)	> 100 µM (inactive)	> 100 µM (inactive)	> 100 µM (inactive)	> 100 µM (inactive)	> 100 µM (inactive)	> 100 µM (inactive)	> 100 µM (inactive)	> 100 µM (inactive)	> 100 µM (inactive)	> 100 µM (inactive)	> 100 µM (inactive)	> 100 µM (inactive)	> 100 µM (inactive)	> 100 µM (inactive)	> 100 µM (inactive)	> 100 µM (inactive)	
COC(C)(C)C(O)C(O)C[C@H](C)C1CC=C2C1(C)CCC1[C@@]3(C)CCC(OC(C)=O)C(C)(C)C3CC(OC3OC(COC(C)=O)C(O)C(O)C3O)[C@@]21C (some centres undefined)	3.31 µM (inactive)	> 10 µM (inactive)	2.59 µM (inactive)	3.41 µM (inactive)	2.32 µM (inactive)	3.33 µM (inactive)	2.5 µM (inactive)	1.93 µM (inactive)	4.85 µM (inactive)	3.24 µM (inactive)	> 10 µM (inactive)	2.94 µM (inactive)	5.86 µM (inactive)	3.72 µM (inactive)	2.07 µM (inactive)	6.05 µM (inactive)	4.2 µM (inactive)	5.13 µM (inactive)	
CCOC(=O)CCC(NC(=O)OCc1ccccc1)C(=O)NC(CCC(=O)OCC)C(=O)NC(Cc1ccc([N+](=O)[O-])cc1)C(=O)NC(CCC(=O)OCC)C(=O)NC(CCC(=O)OCC)C(=O)OCC (centres undefined) (Cbz-E(OEt)E(OEt)[Phe(4-NO2)]E(OEt)E(OEt)-OEt; configuration not given here)		> 100 µM (inactive)		> 100 µM (inactive)	> 100 µM (inactive)	> 100 µM (inactive)	> 100 µM (inactive)	> 100 µM (inactive)	> 100 µM (inactive)	> 100 µM (inactive)	> 100 µM (inactive)		> 100 µM (inactive)	> 100 µM (inactive)	> 100 µM (inactive)		> 100 µM (inactive)	> 100 µM (inactive)	> 100 µM (inactive)
